# Test results taken from paper PMC11055893, “Cyclodipeptide oxidase is an enzyme filament” (Nature Communications, 2024).
# Key:
# AlbAB = target: T1, AlbAB (Streptomyces noursei, UniProt Q8GED8+Q8GED9, Q8GED9:S77A); assay: coupled horseradish peroxidase H2O2 fluorescence assay, Michaelis-Menten fit; format: biochemical; conditions: 100 mM Tris pH 8.0, 30 °C, O2, 1 mM 4-hydroxyphenylacetic acid, 0.1 U HRP, 0.25 µM AlbAB
# T1 construct: gene albA; AlbA ca. 21 kDa, AlbB ca. 11 kDa; filament of alternating AlbA2 and AlbB2 dimers; FMN covalent at AlbA C115
# [1] = target: the molecule itself; assay: SEC + other: dynamic light scattering; DLS at 25 °C, AlbAB 0.1 mg/mL and AlbB 1 mg/mL in 150 mM NaCl, 20 mM Tris pH 7.5; size exclusion chromatography
# T1 sequence (Q8GED9 24-219 S77A, one chain of several): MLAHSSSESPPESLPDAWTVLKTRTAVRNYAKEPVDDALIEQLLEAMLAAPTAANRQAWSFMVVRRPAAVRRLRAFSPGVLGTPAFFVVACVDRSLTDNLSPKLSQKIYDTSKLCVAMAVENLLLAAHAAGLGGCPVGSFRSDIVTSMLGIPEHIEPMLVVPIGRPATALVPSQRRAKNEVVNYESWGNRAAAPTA
Molecule,KM (AlbAB),stoichiometry N [1]
CC(C)C[C@@H]1NC(=O)[C@H](Cc2ccccc2)NC1=O [cyclo(L-Phe-L-Leu)],velocities for AlbAB and AlbA-S54A/AlbB were then fit to a Michaelis-Menton non-linear regression model,
"AlbB expressed alone (His tag removed) (natural protein, Streptomyces noursei, AlbB, Streptomyces noursei; gene PCR-amplified from the AlbAB-encoding pGM1190 vector into pETDuet-1 multiple cloning site 2, with a TEV site to remove the tag; also called His-tagged AlbB; source: E. coli BL21 (DE3), pETDuet-1, purified (His-Trap, TEV cleavage, second His-Trap); not shown: His tag, N-terminal, cleaved) MNPGETVLPPQLREEIALLAVYLLSSGRGLLEEPADYGIYRCTDGARRALQLLDEHGGSTARLTAVRERLDEVMFAPMGEDRDMGAILDDLCRQMADALPEIETP",,2
